From EP4813993A1, “COMPOUND, PREPARATION METHOD THEREFOR, AND USE THEREOF” (Sichuan Kelun Pharmaceutical Research Institute Co., Ltd., priority 2023, dated 2025)

Key:
Nav1.8 channels = target: T1, Nav1.8 channels (Homo sapiens, UniProt Q9Y5Y9); test: Manual patch-clamp, current of stably overexpressed Nav1.8 channels (resting state voltage program); format: cell-based; settings: for inhibition at 0.01 µM: concentration of 10 nM; for inhibition at 0.01 µM / inhibition at 0.001 µM: read-out: Inhibition rate %; for inhibition at 0.001 µM: concentration of 1 nM
T1 construct: expressed in transfected cells
T1 sequence (Q9Y5Y9 whole entry): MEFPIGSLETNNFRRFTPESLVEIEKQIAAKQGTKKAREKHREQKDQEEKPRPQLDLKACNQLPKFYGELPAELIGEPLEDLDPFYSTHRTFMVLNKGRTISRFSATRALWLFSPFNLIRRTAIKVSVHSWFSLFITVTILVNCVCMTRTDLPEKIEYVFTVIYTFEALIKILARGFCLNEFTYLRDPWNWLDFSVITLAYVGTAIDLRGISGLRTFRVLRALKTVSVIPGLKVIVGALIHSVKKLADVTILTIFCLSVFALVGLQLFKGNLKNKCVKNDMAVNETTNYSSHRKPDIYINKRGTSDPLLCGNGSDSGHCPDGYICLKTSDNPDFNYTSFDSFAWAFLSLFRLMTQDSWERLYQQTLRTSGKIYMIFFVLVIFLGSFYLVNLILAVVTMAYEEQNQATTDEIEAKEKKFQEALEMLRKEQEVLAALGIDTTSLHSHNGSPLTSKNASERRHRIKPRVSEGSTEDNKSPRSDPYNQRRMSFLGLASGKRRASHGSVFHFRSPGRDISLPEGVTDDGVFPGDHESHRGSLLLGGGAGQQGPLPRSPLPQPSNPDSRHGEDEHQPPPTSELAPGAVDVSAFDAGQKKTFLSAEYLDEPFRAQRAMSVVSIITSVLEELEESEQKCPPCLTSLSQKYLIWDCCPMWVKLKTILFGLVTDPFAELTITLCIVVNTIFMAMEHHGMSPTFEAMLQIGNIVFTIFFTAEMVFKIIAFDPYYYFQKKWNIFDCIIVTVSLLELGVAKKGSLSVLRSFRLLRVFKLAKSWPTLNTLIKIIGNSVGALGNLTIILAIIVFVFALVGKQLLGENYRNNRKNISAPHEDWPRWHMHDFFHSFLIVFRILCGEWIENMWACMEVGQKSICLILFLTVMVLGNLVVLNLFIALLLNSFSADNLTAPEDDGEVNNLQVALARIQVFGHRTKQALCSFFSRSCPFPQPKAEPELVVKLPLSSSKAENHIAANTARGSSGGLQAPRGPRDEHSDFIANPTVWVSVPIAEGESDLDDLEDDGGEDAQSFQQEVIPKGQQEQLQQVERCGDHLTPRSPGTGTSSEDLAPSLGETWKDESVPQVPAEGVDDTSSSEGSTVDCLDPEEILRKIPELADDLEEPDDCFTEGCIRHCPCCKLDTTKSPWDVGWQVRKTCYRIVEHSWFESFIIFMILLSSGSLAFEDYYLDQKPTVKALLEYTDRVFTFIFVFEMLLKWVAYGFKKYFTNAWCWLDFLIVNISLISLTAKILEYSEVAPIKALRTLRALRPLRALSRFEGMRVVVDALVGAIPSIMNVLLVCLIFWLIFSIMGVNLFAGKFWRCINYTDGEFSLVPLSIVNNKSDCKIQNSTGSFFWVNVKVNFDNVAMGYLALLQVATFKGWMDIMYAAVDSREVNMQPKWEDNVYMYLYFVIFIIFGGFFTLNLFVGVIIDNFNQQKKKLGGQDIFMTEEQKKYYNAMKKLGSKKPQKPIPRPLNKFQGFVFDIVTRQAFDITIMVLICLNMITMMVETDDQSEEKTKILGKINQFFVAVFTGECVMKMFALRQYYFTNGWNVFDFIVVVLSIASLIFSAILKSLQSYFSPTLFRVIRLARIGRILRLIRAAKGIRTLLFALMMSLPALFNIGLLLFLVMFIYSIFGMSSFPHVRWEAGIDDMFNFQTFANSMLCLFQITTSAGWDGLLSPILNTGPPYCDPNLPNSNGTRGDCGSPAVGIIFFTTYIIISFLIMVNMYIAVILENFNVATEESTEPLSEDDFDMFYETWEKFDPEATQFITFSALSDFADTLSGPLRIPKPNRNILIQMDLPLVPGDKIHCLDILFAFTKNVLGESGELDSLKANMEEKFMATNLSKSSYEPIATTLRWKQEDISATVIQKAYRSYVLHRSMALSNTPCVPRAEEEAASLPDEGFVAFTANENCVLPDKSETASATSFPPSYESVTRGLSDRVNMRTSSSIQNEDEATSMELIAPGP
How it was run: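 Whole-cell manual patch clamp on cells stably overexpressing Nav1.8, held at -120 mV and stepped to 0 mV for 50 ms every 20 s (resting-state protocol). Compounds were perfused in ascending concentrations, each for 5 min or until stable; block of peak current was calculated at steady state.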

[1] = Pharmacokinetic study in ICR mice; format: in vivo; settings: male, mouse, plasma
Procedure: Experimental Example 3: Pharmacokinetic study of compounds in ICR mice
Experimental animals: ICR mice, male, 6-8 weeks old.
Compound preparation: 5% (final preparation volume) of DMSO was added to dissolve the test compound, and then 10% (final preparation volume) of Cremophor EL and 85% Saline were sequentially added.
The injection group was given free access to food and water. The oral group was fasted overnight (> 12 h) with free access to water, and was fed 4 h after administration. Blood samples were collected from the jugular vein of ICR mice at the following time points: 5 min, 15 min, 0.5 h, 1 h, 2 h, 4 h, 8 h, and 24 h after injection administration; 15 min, 0.5 h, 1 h, 2 h, 4 h, 6 h, 8 h, and 24 h after oral administration. The collected blood samples were anticoagulated, placed in an ice bath, and then centrifuged for 5 min to separate plasma. The plasma was stored at -70 °C for analysis.
Sample test: The concentrations of the designated compound drugs in plasma were determined by the LC-MS/MS method; the main pharmacokinetic parameters were calculated using the Winnolin 8.3 non-compartmental model. Pharmacokinetic test results of some compounds of the present disclosure in ICR mice

formalin pain model = test: Rat formalin pain model; format: in vivo, SD rats
Procedure: Experimental Example 10: Pharmacodynamic effect study of compounds in rat formalin pain model
Experimental animals: SD rats, male, 180-200 g.
Compound preparation: 5% (final preparation volume) of DMSO was added to dissolve the test compound, and then 10% (final preparation volume) of Cremophor EL and 85% Saline were sequentially added; an appropriate amount of Etoricoxib was weighed, 5% (final preparation volume) of DMSO was added to dissolve the test compound, and then 5% (final preparation volume) of HS-15 and 90% Saline were sequentially added; the tramadol injection was diluted with normal saline to the desired concentration.
Each group consisted of 10 animals, and 50 µL of a 5% formalin solution was injected using a microsyringe into the right plantar region.
2. Administration and test
Based on different pharmacokinetic properties of the drugs, the administration was performed at 0 min, 60 min, and 120 min before modeling. After injection of the formalin, the number of pain responses in the rats was observed. […] Spontaneous pain responses were observed once every 5 min, and the number of pain responses in the rats within 1 min was counted, with a total observation duration of 60 min. Inhibition rate = (number of pain responses in control group - number of pain responses in administration group)/number of pain responses in control group × 100%.
Table 12. Administration information of compounds of the present disclosure in rat formalin model

| Compound | inhibition at 0.01 µM (Nav1.8 channels) [%] | inhibition at 0.001 µM (Nav1.8 channels) [%] | also measured |
| --- | --- | --- | --- |
| COc1c([C@@H]2C[C@](C)(C(F)(F)F)S[C@H]2C(=O)Nc2ccc(F)c(OS(N)(=O)=O)c2)ccc(F)c1F [a-32-A] | – | – | IC50 (Nav1.8 channels): 0.1 nM; AUC(0-inf) ([1]; Oral administration, 10 mg/kg): 22900 ng·h/mL; AUC(0-inf) ([1]; iv, Injection (i.v.), 2 mg/kg): 7390 ng·h/mL |
| COc1c([C@@H]2C[C@](C)(C(F)(F)F)S[C@H]2C(=O)Nc2ccc(B(O)O)c(F)c2)ccc(F)c1F [Compound 88-A, (4-((2R,3S,5R)-3-(3,4-difluoro-2-methoxyphenyl)-5-methyl-5-(trifluoromethyl)tetrahydrothiophene-2-carboxamido)-2-fluorophenyl)boronic acid] | 92.7 | – | – |
| COc1c([C@@H]2C[C@](C)(C(F)(F)F)S[C@H]2C(=O)Nc2ccc(=O)[nH]n2)ccc(F)c1F [a-3-A, (2R,3S,5R)-3-(3,4-difluoro-2-methoxyphenyl)-5-methyl-N-(6-oxo-1,6-dihydropyridazin-3-yl)-5-(trifluoromethyl)tetrahydrothiophene-2-carboxamide] | 80.2 | – | – |
| COc1c([C@@H]2C[C@](C)(C(F)(F)F)S[C@H]2C(=O)Nc2ccnc(SC#N)c2)ccc(F)c1F [a-80-A, (2R,3S,5R)-3-(3,4-difluoro-2-methoxyphenyl)-5-methyl-N-(2-thiocyanatopyridin-4-yl)-5-(trifluoromethyl)tetrahydrothiophene-2-carboxamide] | – | – | IC50 (Nav1.8 channels): 0.19 nM |
| COc1c([C@@H]2C[C@](C)(C(F)(F)F)S[C@H]2C(=O)Nc2ccc([S+](C)[O-])nc2)ccc(F)c1F (stereo partly drawn) [Compound 238-A, (2R,3S,5R)-3-(3,4-difluoro-2-methoxyphenyl)-5-methyl-N-(6-(methylsulfinyl)pyridin-3-yl)-5-(trifluoromethyl)tetrahydrothiophene-2-carboxamide] | – | 85.5 | – |
| COc1c([C@@H]2C[C@](C)(C(F)(F)F)S[C@H]2C(=O)Nc2ccc(F)c(C/C(C#N)=C(\C)O)c2)ccc(F)c1F [a-17-A, (2R,3S,5R)-N-(3-((Z)-2-cyano-3-hydroxybut-2-enyl)-4-fluorophenyl)-3-(3,4-difluoro-2-methoxyphenyl)-5-methyl-5-(trifluoromethyl)tetrahydrothiophene-2-carboxamide] | 65.5 | – | – |
| COc1c([C@@H]2C[C@](C)(C(F)(F)F)S[C@H]2C(=O)Nc2ccnc(C3(C#N)CC3)c2)ccc(F)c1F [a-73-A, (2R,3S,5R)-N-(2-(1-cyanocyclopropyl)pyridin-4-yl)-3-(3,4-difluoro-2-methoxyphenyl)-5-methyl-5-(trifluoromethyl)tetrahydrothiophene-2-carboxamide] | – | 58.8 | – |
| COc1c([C@@H]2C[C@](C)(C(F)(F)F)S[C@H]2C(=O)Nc2ccc(N)c(S(N)(=O)=O)c2)ccc(F)c1F [Compound 249-A, (2R,3S,5R)-N-(4-amino-3-sulfamoylphenyl)-3-(3,4-difluoro-2-methoxyphenyl)-5-methyl-5-(trifluoromethyl)tetrahydrothiophene-2-carboxamide] | – | 81.6 | – |
| COc1c([C@@H]2C[C@](C)(C(F)(F)F)S[C@H]2C(=O)Nc2ccc3c(c2)S(=O)(=O)NCN3)ccc(F)c1F [a-26-A, (2R,3S,5R)-3-(3,4-difluoro-2-methoxyphenyl)-N-(1,1-dioxide-3,4-dihydro-2H-benzo[e][1,2,4]thiadiazin-7-yl)-5-methyl-5-(trifluoromethyl)tetrahydrothiophene-2-carboxamide] | 95.6 | – | – |
| COc1c(C2CC(C)(C(F)(F)F)SC2C(=O)Nc2ccc(=O)n(C)c2)ccc(F)c1F (stereo not shown) [Compound 178, 3-(3,4-difluoro-2-methoxyphenyl)-5-methyl-N-(1-methyl-6-oxo-1,6-dihydropyridin-3-yl)-5-(trifluoromethyl)tetrahydrothiophene-2-carboxamide] | 86 | – | – |
| COc1cccc(C2(O)CCCCC2CN(C)C)c1 (stereo not shown) [Tramadol] | – | – | Number of pain responses 0 min (formalin pain model; SD rats, 10 mg/kg i.v. immediately before 5% formalin, 0 min, Mean + SD, n = 10): 31.9±15.0; Number of pain responses 10 min (formalin pain model; SD rats, 10 mg/kg i.v. immediately before 5% formalin, 10 min, Mean + SD, n = 10): 1.9±3.0; Number of pain responses 15 min (formalin pain model; SD rats, 10 mg/kg i.v. immediately before 5% formalin, 15 min, Mean + SD, n = 10): 4.1±4.4; Number of pain responses 30 min (formalin pain model; SD rats, 10 mg/kg i.v. immediately before 5% formalin, 30 min, Mean + SD, n = 10): 12.8±6.7; Number of pain responses 40 min (formalin pain model; SD rats, 10 mg/kg i.v. immediately before 5% formalin, 40 min, Mean + SD, n = 10): 13.2±8.1; Number of pain responses 50 min (formalin pain model; SD rats, 10 mg/kg i.v. immediately before 5% formalin, 50 min, Mean + SD, n = 10): 8.6±3.6; Number of pain responses 60 min (formalin pain model; SD rats, 10 mg/kg i.v. immediately before 5% formalin, 60 min, Mean + SD, n = 10): 9.3±5.1; analgesic activity in the first and second phases (formalin pain model; rat formalin pain model, first phase immediately after injection, second phase about 15-20 min after): superior analgesic effects in the first and second phases, respectively |
| COc1c(C2CC(C)(C(F)(F)F)SC2C(=O)Nc2conc2C)ccc(F)c1F (stereo not shown) [Compound 197, 3-(3,4-difluoro-2-methoxyphenyl)-5-methyl-N-(3-methylisoxazol-4-yl)-5-(trifluoromethyl)tetrahydrothiophene-2-carboxamide] | 91.1 | – | – |
| COc1c([C@@H]2C[C@](C)(C(F)(F)F)S[C@H]2C(=O)Nc2ccc(C(=O)O)c(O)c2)ccc(F)c1F [Compound 226-A, 4-((2R,3S,5R)-3-(3,4-difluoro-2-methoxyphenyl)-5-methyl-5-(trifluoromethyl)tetrahydrothiophene-2-carboxamido)-2-hydroxybenzoic acid] | – | 32.2 | – |
| COc1c([C@@H]2C[C@](C)(C(F)(F)F)S[C@H]2C(=O)Nc2ccc(F)c(/C=C(\C#N)C(N)=O)c2)ccc(F)c1F [a-89-A, (2R,3S,5R)-N-(3-((E)-3-amino-2-cyano-3-oxopropen-1-yl)-4-fluorophenyl)-3-(3,4-difluoro-2-methoxyphenyl)-5-methyl-5-(trifluoromethyl)tetrahydrothiophene-2-carboxamide] | – | 51.5 | – |
| COc1c([C@@H]2C[C@](C)(C(F)(F)F)S[C@H]2C(=O)Nc2ccc3c(c2)S(=O)(=O)NC3=O)ccc(F)c1F [a-36-A, (2R,3S,5R)-3-(3,4-difluoro-2-methoxyphenyl)-N-(1,1-dioxide-3-oxo-2,3-dihydrobenzo[d]isothiazol-6-yl)-5-methyl-5-(trifluoromethyl)tetrahydrothiophene-2-carboxamide] | 83.7 | – | – |
| COc1c(C2CC(C)(C(F)(F)F)SC2C(=O)Nc2ccc(NC(=O)CN=[N+]=[N-])cc2)ccc(F)c1F (stereo not shown) [a-75-A, N-(4-(2-azidoacetamido)phenyl)-3-(3,4-difluoro-2-methoxyphenyl)-5-methyl-5-(trifluoromethyl)tetrahydrothiophene-2-carboxamide] | – | 55.2 | – |
| COc1c(C2CC(C)(C(F)(F)F)SC2C(=O)Nc2csc(B(O)O)c2)ccc(F)c1F (stereo not shown) [Compound 48, (4-(3-(3,4-difluoro-2-methoxyphenyl)-5-methyl-5-(trifluoromethyl)tetrahydrothiophene-2-carboxamido)thiophen-2-yl)boronic acid] | 79.8 | – | – |
| COc1c(C2CC(C)(C(F)(F)F)SC2C(=O)Nc2ccn(C)c(=O)c2)ccc(F)c1F (stereo not shown) [Compound 172, 3-(3,4-difluoro-2-methoxyphenyl)-5-methyl-N-(1-methyl-2-oxo-1,2-dihydropyridin-4-yl)-5-(trifluoromethyl)tetrahydrothiophene-2-carboxamide] | 86.5 | – | – |
| COc1c([C@@H]2C[C@](C)(C(F)(F)F)S[C@H]2C(=O)Nc2ccc3c(c2)C(=O)NC3=O)ccc(F)c1F [a-23-A, (2R,3S,5R)-3-(3,4-difluoro-2-methoxyphenyl)-N-(1,3-dioxoisoindol-5-yl)-5-methyl-5-(trifluoromethyl)tetrahydrothiophene-2-carboxamide] | – | 56.5 | – |
